Reference: ChEMBL document CHEMBL3352429, “A review on recent developments of indole-containing antiviral agents” (Eur J Med Chem, 2015)
Converted amounts (≈) assume the structure as drawn. Counter-ions that a name gives are not always drawn.

What was measured:
[1] = test system: Human alphaherpesvirus 1; assay: Antiviral activity against Herpes simplex virus type 1; type: functional, organism-based
[2] = test system: Human alphaherpesvirus 2; assay: Antiviral activity against Herpes simplex virus type 2; type: functional, organism-based
[3] = test system: Human immunodeficiency virus 1; assay: Antiviral activity against wild type HIV1 3B infected in human MT-2 cells assessed as protection of infected cells by MTT colorimetric method; type: functional, organism-based; conditions: Human immunodeficiency virus 1, 3B, MT2
[4] = test system: Human immunodeficiency virus 1; assay: Antiviral activity against wild type HIV1 3B infected in human C8166 cells assessed as cytopathic effect by counting the number of syncytia; type: functional, organism-based; conditions: Human immunodeficiency virus 1, 3B
[5] = Therapeutic index, ratio of CC50 for human C8166 cells to EC50 for HIV-1 3B; type: cell-based; conditions: read-out: Ratio CC50/EC50
[6] = test system: Human immunodeficiency virus 1; assay: Antiviral activity against HIV1; type: functional, organism-based
[7] = Inhibition of HIV-1 integrase LEDGF/p75 (unknown origin) interaction; parameters: species or system Human immunodeficiency virus 1
[8] = test system: Human immunodeficiency virus 1; assay: Antiviral activity against HIV-1 3B infected in human TZM-bl cells; type: functional, organism-based; conditions: Human immunodeficiency virus 1, 3B
[9] = Cytotoxicity against human TZM-bl cells; type: cell-based
[10] = Selectivity index, ratio of CC50 for human TZM-bl cells to EC50 for HIV-1 3B; type: toxicity, cell-based; conditions: read-out: Ratio CC50/EC50
[11] = target: T1, Human immunodeficiency virus type 1 integrase (Human immunodeficiency virus 1, UniProt Q7ZJM1); assay: Inhibition of HIV-1 integrase strand transfer activity
T1 sequence (Q7ZJM1 whole entry): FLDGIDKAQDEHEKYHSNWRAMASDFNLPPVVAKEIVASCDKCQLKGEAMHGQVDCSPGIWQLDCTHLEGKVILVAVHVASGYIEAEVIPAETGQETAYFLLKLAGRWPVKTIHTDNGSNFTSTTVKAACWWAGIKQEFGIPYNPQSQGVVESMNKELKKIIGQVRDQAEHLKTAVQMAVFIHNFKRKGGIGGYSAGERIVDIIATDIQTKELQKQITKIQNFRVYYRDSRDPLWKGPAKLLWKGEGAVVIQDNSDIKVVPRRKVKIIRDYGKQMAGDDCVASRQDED

[12] = target: T1, Human immunodeficiency virus type 1 integrase; assay: Inhibition of HIV-1 integrase
[13] = test system: Human immunodeficiency virus 1; assay: Antiviral activity against HIV1 infected in human peripheral blood leukocyte cells assessed as inhibition of replication; type: functional, organism-based
[14] = Cytotoxicity against human peripheral blood leukocyte cells at 100 uM; type: cell-based
[15] = read-out: ID50 (the source's name)

With `CC(C)CC(=O)[C@@H](O)Cc1c[nH]c2ccccc12` the IC50 [1, 15] was 1.5 µg/mL (≈ 6.11 µM) and the IC50 [2, 15] was 1.5 µg/mL.
`O=c1ccn(CCOc2ccccc2Oc2cccc3[nH]ccc23)c(=O)[nH]1` gave an EC50 [3] of 85 nM.
`Cc1cn(-c2ccc([N+](=O)[O-])cc2)c2ccccc12` showed an EC50 [4] of 7.88 µg/mL (≈ 31.2 µM) and a selectivity ratio [5] of 24.6.
With `O=C(/C=C/c1c[nH]c2ccccc12)N/C=C/c1c[nH]c2ccccc12` [CHONDRIAMIDE A] the IC50 ([2]; read-out: IC50) was 1000 nM.
In the case of `O=C(/C=C/c1c[nH]c2ccccc12)N/C=C\c1c[nH]c2ccccc12` [CHONDRIAMIDE C], the IC50 ([2]; read-out: IC50) is reported as 1000 nM.
Molecule `C[C@H]1c2nc(N)[nH]c2[C@]2(O)C[C@H]1c1c(-c3cnc(-c4c[nH]c5cc(Br)ccc45)c(=O)[nH]3)c[nH]c1C2=O` has an EC50 [1] of 95800 nM and an EC50 [6] of 910 nM.
`COc1cccc2c1c(C(=O)/C=C(\O)C(=O)O)cn2Cc1ccc(F)cc1` gave an IC50 [7] of 36000 nM.
For `CCOC(=O)C(O)(c1c[nH]c2ccc([N+](=O)[O-])cc12)C(F)(F)F` (stereo not given), the EC50 [8] was 19 nM, the CC50 [9] was 211000 nM and the selectivity ratio [10] was 11.1.
In the case of `O=C(/C=C/c1c[nH]c2c(O)cccc12)N/C=C/c1c[nH]c2ccccc12`, the IC50 ([2]; read-out: IC50) is reported as 1000 nM.
Work on `O=[N+]([O-])c1ccc2c(ccn2-c2ccccc2[N+](=O)[O-])c1` yielded an EC50 [4] of 7.88 µg/mL (≈ 27.8 µM) and a selectivity ratio [5] of 24.6.
`COc1cccc2c1c(C(=O)/C=C(\O)C(=O)O)cn2Cc1cc(C)cc(C)c1` gave an IC50 [11] of 5490 nM and an EC50 [6] of 4630 nM.
With `COc1ccc2c3c([nH]c2c1)C1=NCC[C@]12c1ccccc1N=CN2CC3` the EC50 [6] was 950 nM.
In the case of `COc1ccc2c(c1)N=CN1CCc3c([nH]c4ccccc34)C3=NCC[C@@]321`, the EC50 [6] is reported as 20 nM.
With `Cc1cc(C)cc(Cn2cc(C(=O)/C=C(\O)C(=O)O)c3c(O)cccc32)c1` the IC50 [12] was 3500 nM.
In the case of `O=[N+]([O-])c1ccccc1-n1ccc2ccccc21`, the EC50 [4] is reported as 7.88 µg/mL (≈ 33.1 µM) and the selectivity ratio [5] is reported as 24.6.
For `CCNc1cccnc1N1CCN(C(=O)c2cc3cc(OC)ccc3[nH]2)CC1` [ATEVIRDINE MESYLATE], the IC50 [13] was 1 nM and the Activity [14] was 50%.
